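Following 48 hours of exposure in 96-well plates, responses at five concentrations were used to interpolate endpoints linearly. GI50 = concentration required for 50% inhibition of growth. The concentration for full growth arrest is given as TGI.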
Legend:
Experiment in all cases: NCI-60 cell line screen, 48 h
K-562 leukemia = system: K-562 leukemia
SF-539 CNS = system: SF-539 CNS
HCT-116 colon = system: HCT-116 colon
MDA-MB-435 = system: MDA-MB-435
T-47D breast = system: T-47D breast
SK-MEL-2 melanoma = system: SK-MEL-2 melanoma
M14 melanoma = system: M14 melanoma
NCI-H522 lung = system: NCI-H522 lung
A498 renal = system: A498 renal
HOP-92 NSCLC = system: HOP-92 NSCLC
SF-295 CNS = system: SF-295 CNS
OVCAR-3 ovarian = system: OVCAR-3 ovarian
UO-31 renal = system: UO-31 renal
HCC-2998 colon = system: HCC-2998 colon
RXF 393 renal = system: RXF 393 renal
TK-10 renal = system: TK-10 renal
COLO 205 colon = system: COLO 205 colon
786-0 renal = system: 786-0 renal
SF-268 CNS = system: SF-268 CNS
SN12C renal = system: SN12C renal
NCI-H226 lung = system: NCI-H226 lung
HS 578T breast = system: HS 578T breast
MDA-MB-231 breast = system: MDA-MB-231 breast
MALME-3M melanoma = system: MALME-3M melanoma
BT-549 breast = system: BT-549 breast
UACC-257 melanoma = system: UACC-257 melanoma
MOLT-4 leukemia = system: MOLT-4 leukemia
UACC-62 melanoma = system: UACC-62 melanoma
DU-145 prostate = system: DU-145 prostate
OVCAR-8 ovarian = system: OVCAR-8 ovarian
ACHN renal = system: ACHN renal
U251 CNS = system: U251 CNS
PC-3 prostate = system: PC-3 prostate
EKVX NSCLC = system: EKVX NSCLC
IGROV1 ovarian = system: IGROV1 ovarian
HOP-62 NSCLC = system: HOP-62 NSCLC
NCI-H460 lung = system: NCI-H460 lung
SW-620 colon = system: SW-620 colon
MCF7 breast = system: MCF7 breast
CCRF-CEM leukemia = system: CCRF-CEM leukemia
NCI-H23 lung = system: NCI-H23 lung
SK-MEL-5 melanoma = system: SK-MEL-5 melanoma
NCI/ADR-RES ovarian = system: NCI/ADR-RES ovarian
LOX IMVI melanoma = system: LOX IMVI melanoma
OVCAR-5 ovarian = system: OVCAR-5 ovarian
SK-OV-3 ovarian = system: SK-OV-3 ovarian
HCT-15 colon = system: HCT-15 colon
RPMI-8226 leukemia = system: RPMI-8226 leukemia
OVCAR-4 ovarian = system: OVCAR-4 ovarian
CAKI-1 renal = system: CAKI-1 renal
KM12 colon = system: KM12 colon
A549 NSCLC = system: A549 NSCLC

SMILES: COc1cc2c(c(OC)c1OC)-c1c(c3ccc([N+](=O)[O-])cc3c(=O)n1CCCN)C2=O
- GI50 (K-562 leukemia): 0.478 µM
- TGI (K-562 leukemia): 1.33 µM
- GI50 (SF-539 CNS): 1.38 µM
- TGI (SF-539 CNS): 3.28 µM
- GI50 (HCT-116 colon): 0.828 µM
- TGI (HCT-116 colon): 1.53 µM
- GI50 (MDA-MB-435): 0.865 µM
- TGI (MDA-MB-435): 1.63 µM
- GI50 (T-47D breast): 1.88 µM
- TGI (T-47D breast): 7.85 µM
- GI50 (SK-MEL-2 melanoma): 1.21 µM
- TGI (SK-MEL-2 melanoma): 2.77 µM
- GI50 (M14 melanoma): 0.835 µM
- TGI (M14 melanoma): 1.53 µM
- GI50 (NCI-H522 lung): 9.63 µM
- TGI (NCI-H522 lung): 19.1 µM
- GI50 (A498 renal): 8.22 µM
- TGI (A498 renal): 18 µM
- GI50 (HOP-92 NSCLC): 7.21 µM
- TGI (HOP-92 NSCLC): 15.8 µM
- GI50 (SF-295 CNS): 1.86 µM
- TGI (SF-295 CNS): 7.82 µM
- GI50 (OVCAR-3 ovarian): 10.7 µM
- TGI (OVCAR-3 ovarian): 19.1 µM
- GI50 (UO-31 renal): 0.892 µM
- TGI (UO-31 renal): 1.68 µM
- GI50 (HCC-2998 colon): 9.12 µM
- TGI (HCC-2998 colon): 17.6 µM
- GI50 (RXF 393 renal): 2.05 µM
- TGI (RXF 393 renal): 3.86 µM
- GI50 (TK-10 renal): 9.89 µM
- TGI (TK-10 renal): 18.7 µM
- GI50 (COLO 205 colon): 8.72 µM
- TGI (COLO 205 colon): > 50 µM
- GI50 (786-0 renal): 0.799 µM
- TGI (786-0 renal): 1.51 µM
- GI50 (SF-268 CNS): 13.2 µM
- TGI (SF-268 CNS): 34.6 µM
- GI50 (SN12C renal): 4 µM
- TGI (SN12C renal): 11.5 µM
- GI50 (NCI-H226 lung): 9.38 µM
- TGI (NCI-H226 lung): 19.4 µM
- GI50 (HS 578T breast): 11.1 µM
- TGI (HS 578T breast): 31.4 µM
- GI50 (MDA-MB-231 breast): 0.908 µM
- TGI (MDA-MB-231 breast): 1.74 µM
- GI50 (MALME-3M melanoma): 0.952 µM
- TGI (MALME-3M melanoma): 1.92 µM
- GI50 (BT-549 breast): 14.4 µM
- TGI (BT-549 breast): 46.9 µM
- GI50 (UACC-257 melanoma): 8.22 µM
- TGI (UACC-257 melanoma): 17 µM
- GI50 (MOLT-4 leukemia): 5.82 µM
- TGI (MOLT-4 leukemia): 14.2 µM
- GI50 (UACC-62 melanoma): 9.12 µM
- TGI (UACC-62 melanoma): 17 µM
- GI50 (DU-145 prostate): 7.27 µM
- TGI (DU-145 prostate): 16.6 µM
- GI50 (OVCAR-8 ovarian): 1.79 µM
- TGI (OVCAR-8 ovarian): 6.42 µM
- GI50 (ACHN renal): 8.06 µM
- TGI (ACHN renal): 16.6 µM
- GI50 (U251 CNS): 0.92 µM
- TGI (U251 CNS): 1.75 µM
- GI50 (PC-3 prostate): 7.68 µM
- TGI (PC-3 prostate): 15 µM
- GI50 (EKVX NSCLC): 7.1 µM
- TGI (EKVX NSCLC): 33 µM
- GI50 (IGROV1 ovarian): 8.7 µM
- TGI (IGROV1 ovarian): 17.1 µM
- GI50 (HOP-62 NSCLC): 0.937 µM
- TGI (HOP-62 NSCLC): 1.73 µM
- GI50 (NCI-H460 lung): 15.9 µM
- TGI (NCI-H460 lung): > 50 µM
- GI50 (SW-620 colon): 1.03 µM
- TGI (SW-620 colon): 2.35 µM
- GI50 (MCF7 breast): 14.2 µM
- TGI (MCF7 breast): > 50 µM
- GI50 (CCRF-CEM leukemia): 0.826 µM
- TGI (CCRF-CEM leukemia): 2.12 µM
- GI50 (NCI-H23 lung): 2.35 µM
- TGI (NCI-H23 lung): 10.2 µM
- GI50 (SK-MEL-5 melanoma): 7.15 µM
- TGI (SK-MEL-5 melanoma): 15.8 µM
- GI50 (NCI/ADR-RES ovarian): 5.49 µM
- TGI (NCI/ADR-RES ovarian): 15.6 µM
- GI50 (LOX IMVI melanoma): 1.01 µM
- TGI (LOX IMVI melanoma): 2.06 µM
- GI50 (OVCAR-5 ovarian): 1.77 µM
- TGI (OVCAR-5 ovarian): 6.35 µM
- GI50 (SK-OV-3 ovarian): 12.8 µM
- TGI (SK-OV-3 ovarian): 25.1 µM
- GI50 (HCT-15 colon): 8.16 µM
- TGI (HCT-15 colon): 16.8 µM
- GI50 (RPMI-8226 leukemia): 1.29 µM
- TGI (RPMI-8226 leukemia): 3.75 µM
- GI50 (OVCAR-4 ovarian): 2.9 µM
- TGI (OVCAR-4 ovarian): 12.9 µM
- GI50 (CAKI-1 renal): 0.895 µM
- TGI (CAKI-1 renal): 10.9 µM
- GI50 (KM12 colon): 6.64 µM
- TGI (KM12 colon): 18.1 µM
- GI50 (A549 NSCLC): 1.32 µM
- TGI (A549 NSCLC): 3.06 µM

Reference: PubChem BioAssay (NCI)
